Assay results reported in ChEMBL document CHEMBL4007407, “Carbonic anhydrases from Trypanosoma and Leishmania as anti-protozoan drug targets” (Bioorg Med Chem, 2017).

How the values were obtained:
[1] = Inhibition of Trypanosoma cruzi SUMO-tagged glucose-6-phosphate dehydrogenase expressed in Escherichia coli BL21(DE3) using glucose-6-phosphate as substrate by diaphorase enzyme coupled fluorescence assay
[2] = Inhibition of Leishmania major trypanothione reductase
[3] = Inhibition of Trypanosoma cruzi hexokinase
[4] = Inhibition of Leishmania amazonensis squalene synthase
[5] = Mixed-type inhibition of Trypanosoma cruzi epimastigotes hexokinase using D-glucose as substrate in presence of ATP by Lineweaver-Burk Plot analysis
[6] = Inhibition of Trypanosoma cruzi glucose-6-phosphate dehydrogenase
Trypanosoma cruzi = assay: Antitrypanosomal activity against Trypanosoma cruzi Tulahuen amastigotes expressing beta-galactosidase gene infected in mouse NIH/3T3 cells after 4 days; format: functional, cell-based; conditions: NIH3T3, 96 h
[7] = Inhibition of Trypanosoma cruzi strain CL Brener N-terminal His6-tagged glucokinase expressed in Escherichia coli using D-glucose as substrate in presence of ATP by colorimetric assay
[8] = Inhibition of Trypanosoma cruzi strain CL Brener N-terminal His6-tagged glucokinase expressed in Escherichia coli using D-glucose as substrate in presence of ATP by Lineweaver-Burk Plot analysis
Leishmania [9] = assay: Antileishmanial activity against Leishmania in visceral leishmaniasis patient assessed as cure incidents at 10 to 15 mg/kg, iv administered as single dose as lipid formulations relative to control; format: functional
[10] = Inhibition of Trypanosoma cruzi N-terminal His-tagged full-length glucose-6-phosphate dehydrogenase expressed in Escherichia coli BL21(DE3) using glucose-6-phosphate as substrate in presence of NADP+ by spectrophotometric method
Leishmania [11] = assay: Antileishmanial activity against Leishmania in mucocutaneous leishmaniasis patient assessed as cure incidents at 4 mg/kg relative to control; format: functional

C[C@]12CC[C@H](O)CC1=CC[C@@H]1[C@@H]2CC[C@]2(C)C(=O)[C@H](Br)C[C@@H]12 gave an IC50 [1] of 0.216 µM.

In the case of O=C(CCl)N1c2ccccc2Sc2ccccc21, the IC50 [2] is reported as 9.3 µM.

Work on CCn1c2ccccc2c2cc(NC(P(=O)(O)O)P(=O)(O)O)ccc21 yielded an IC50 [3] of 6.4 µM and a Ki [3] of 2.8 µM.

COCCCOc1ccc(C#C[C@@]2(O)CN3CCC2CC3)c(Cc2ccccc2)n1 gave an IC50 [4] of 0.9 µM and a Ki [4] of 0.0012 µM.

With CO[C@H]1CN(c2ccc(C#C[C@@]3(O)CN4CCC3CC4)c(Cc3ccccc3)n2)C[C@H]1O the IC50 [4] was 6.7 µM and the Ki [4] was 0.0052 µM.

For O=P(O)(O)C(Nc1cccc(Br)c1)P(=O)(O)O, the Ki [5] was 1.2 µM.

O=C(CCl)N1c2ccccc2Oc2ccc(Cl)cc21 showed an IC50 [2] of 7.6 µM.

Molecule O=C(CCl)N1c2ccccc2COc2ccc(Cl)cc21 has an IC50 [2] of 7.2 µM.

For CCCCCCCn1cnc2sc(C(N)=O)c(C)c2c1=O, the IC50 [6] was 4.9 µM.

With O=C(N[C@@H]1[C@@H](O)[C@H](O)[C@@H](CO)O[C@@H]1O)OCc1ccccc1 the IC50 (Trypanosoma cruzi) was 16.1 µM, the IC50 [7] was 48.7 µM and the Ki [8] was 0.71 µM.

Cc1ccc(Nc2ncc3c(n2)CCCC3=O)cc1 showed an IC50 [6] of 0.48 µM.

O=C(N[C@@H]1[C@@H](O)[C@H](O)[C@@H](CO)O[C@@H]1O)c1ccccc1 gave an IC50 (Trypanosoma cruzi) of 48.7 µM, an IC50 [7] of 16.1 µM and a Ki [8] of 32 µM.

In the case of O=P(O)(O)C(O)(Cc1ccncc1)P(=O)(O)O, the Ki [5] is reported as 4.3 µM.

In the case of C[C@]12CC[C@H](O)C[C@@H]1CC[C@@H]1[C@@H]2CC[C@]2(C)C(=O)[C@H](Br)C[C@@H]12 [16.ALPHA.-BROMOEPIANDROSTERONE], the IC50 [1] is reported as 0.086 µM.

With C[C@@H]1[C@H](O)[C@@H](C)/C=C/C=C/C=C/C=C/C=C/C=C/C=C/[C@H](O[C@@H]2O[C@H](C)[C@@H](O)[C@H](N)[C@@H]2O)C[C@@H]2O[C@](O)(C[C@@H](O)C[C@@H](O)[C@H](O)CC[C@@H](O)C[C@@H](O)CC(=O)O[C@H]1C)C[C@H](O)[C@H]2C(=O)O [AMPHOTERICIN B] the Activity (Leishmania [9]) was 93.3%.

C[C@]12CC[C@H](O)C[C@@H]1CC[C@@H]1[C@@H]2CC[C@]2(C)C(=O)CC[C@@H]12 [EPIANDROSTERONE] gave an IC50 [10] of 3 µM and a Ki [10] of 3.2 µM.

With N=C(N)c1ccc(OCCCCCOc2ccc(C(=N)N)cc2)cc1 [PENTAMIDINE] the Activity (Leishmania [11]) was 90 - 95%.
